# ChEMBL document CHEMBL5465560, “Selectivity Literature for EUbOPEN Chemogenomic Library” (2024)
# How the values were obtained:
# [1] = molecular target: T1, SRSF protein kinase 1 (Homo sapiens, UniProt Q96SB4)
# [2] = molecular target: T1, SRSF protein kinase 1; remark: listed apart in the source
# [3] = molecular target: Dual specificity protein kinase CLK1 (Homo sapiens, UniProt P49759); experiment: Selectivity interaction (Radioactive assay (Reaction Biology)) EUB0001046a CLK1
# [4] = molecular target: T2, Dual specificity tyrosine-phosphorylation-regulated kinase 2 (Homo sapiens, UniProt Q92630); experiment: Selectivity interaction (Radioactive assay (Reaction Biology)) EUB0001046a DYRK2
# T2 sequence (Q92630 whole entry): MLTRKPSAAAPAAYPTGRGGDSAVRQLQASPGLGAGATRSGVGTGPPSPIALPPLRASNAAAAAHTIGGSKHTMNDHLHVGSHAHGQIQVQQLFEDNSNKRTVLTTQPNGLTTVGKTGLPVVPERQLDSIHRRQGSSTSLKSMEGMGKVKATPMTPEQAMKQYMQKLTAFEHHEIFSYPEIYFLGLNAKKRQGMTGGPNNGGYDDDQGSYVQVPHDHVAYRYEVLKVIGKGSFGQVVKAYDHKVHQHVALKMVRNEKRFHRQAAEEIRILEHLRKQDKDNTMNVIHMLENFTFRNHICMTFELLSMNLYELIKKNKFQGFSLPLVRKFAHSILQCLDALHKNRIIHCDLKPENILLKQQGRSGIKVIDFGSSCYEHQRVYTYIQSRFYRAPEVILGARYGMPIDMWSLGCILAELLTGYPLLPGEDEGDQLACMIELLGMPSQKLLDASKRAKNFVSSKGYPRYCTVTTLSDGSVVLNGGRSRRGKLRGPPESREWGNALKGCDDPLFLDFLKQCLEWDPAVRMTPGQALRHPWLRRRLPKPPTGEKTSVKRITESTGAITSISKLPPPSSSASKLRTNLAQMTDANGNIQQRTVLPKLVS
# [5] = molecular target: SRSF protein kinase 2 (Homo sapiens) (UniProt P78362)
# Chain of SRSF protein kinase 2 (Homo sapiens) (P78362 whole entry, looked up): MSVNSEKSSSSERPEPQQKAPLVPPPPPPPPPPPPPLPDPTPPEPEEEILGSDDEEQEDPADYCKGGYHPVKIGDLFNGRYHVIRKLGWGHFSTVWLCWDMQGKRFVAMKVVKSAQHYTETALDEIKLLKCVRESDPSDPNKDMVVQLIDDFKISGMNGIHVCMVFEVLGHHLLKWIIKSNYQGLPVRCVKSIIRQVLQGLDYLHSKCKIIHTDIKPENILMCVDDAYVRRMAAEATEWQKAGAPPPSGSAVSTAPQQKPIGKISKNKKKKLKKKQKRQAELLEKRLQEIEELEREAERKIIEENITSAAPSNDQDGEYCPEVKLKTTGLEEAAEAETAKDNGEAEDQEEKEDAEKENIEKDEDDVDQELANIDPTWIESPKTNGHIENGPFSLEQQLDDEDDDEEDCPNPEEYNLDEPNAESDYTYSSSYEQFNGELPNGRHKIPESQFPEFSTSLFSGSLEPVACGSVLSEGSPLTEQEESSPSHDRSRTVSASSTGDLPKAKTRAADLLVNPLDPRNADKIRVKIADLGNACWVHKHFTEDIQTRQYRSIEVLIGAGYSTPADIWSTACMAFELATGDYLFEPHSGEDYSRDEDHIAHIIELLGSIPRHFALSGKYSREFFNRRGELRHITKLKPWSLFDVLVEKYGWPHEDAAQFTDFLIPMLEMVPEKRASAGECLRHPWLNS
# [6] = molecular target: Dual specificity tyrosine-phosphorylation-regulated kinase 1A (Homo sapiens, UniProt Q13627); experiment: Selectivity interaction (Radioactive assay (Reaction Biology)) EUB0001046a DYRK1A
# [7] = molecular target: Dual specificity protein kinase CLK2 (Homo sapiens, UniProt P49760); experiment: Selectivity interaction (Radioactive assay (Reaction Biology)) EUB0001046a CLK2
# Chain of Dual specificity protein kinase CLK2 (P49760 whole entry): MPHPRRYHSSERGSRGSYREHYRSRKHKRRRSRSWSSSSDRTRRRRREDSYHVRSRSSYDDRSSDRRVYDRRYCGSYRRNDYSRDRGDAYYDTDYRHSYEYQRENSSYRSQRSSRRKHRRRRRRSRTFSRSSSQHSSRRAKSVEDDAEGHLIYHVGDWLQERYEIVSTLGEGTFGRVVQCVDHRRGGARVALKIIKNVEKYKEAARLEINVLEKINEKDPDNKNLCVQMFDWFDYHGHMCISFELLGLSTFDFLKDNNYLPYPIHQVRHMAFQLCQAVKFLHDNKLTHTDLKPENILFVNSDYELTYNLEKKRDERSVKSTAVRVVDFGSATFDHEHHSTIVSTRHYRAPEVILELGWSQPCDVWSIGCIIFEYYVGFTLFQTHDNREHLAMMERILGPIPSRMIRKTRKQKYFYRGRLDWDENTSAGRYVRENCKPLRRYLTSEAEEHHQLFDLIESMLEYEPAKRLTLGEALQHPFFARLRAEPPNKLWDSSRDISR
# [8] = molecular target: T3, Dual specificity tyrosine-phosphorylation-regulated kinase 3 (Homo sapiens, UniProt O43781); experiment: Selectivity interaction (Radioactive assay (Reaction Biology)) EUB0001046a DYRK3
# T3 sequence (O43781 whole entry): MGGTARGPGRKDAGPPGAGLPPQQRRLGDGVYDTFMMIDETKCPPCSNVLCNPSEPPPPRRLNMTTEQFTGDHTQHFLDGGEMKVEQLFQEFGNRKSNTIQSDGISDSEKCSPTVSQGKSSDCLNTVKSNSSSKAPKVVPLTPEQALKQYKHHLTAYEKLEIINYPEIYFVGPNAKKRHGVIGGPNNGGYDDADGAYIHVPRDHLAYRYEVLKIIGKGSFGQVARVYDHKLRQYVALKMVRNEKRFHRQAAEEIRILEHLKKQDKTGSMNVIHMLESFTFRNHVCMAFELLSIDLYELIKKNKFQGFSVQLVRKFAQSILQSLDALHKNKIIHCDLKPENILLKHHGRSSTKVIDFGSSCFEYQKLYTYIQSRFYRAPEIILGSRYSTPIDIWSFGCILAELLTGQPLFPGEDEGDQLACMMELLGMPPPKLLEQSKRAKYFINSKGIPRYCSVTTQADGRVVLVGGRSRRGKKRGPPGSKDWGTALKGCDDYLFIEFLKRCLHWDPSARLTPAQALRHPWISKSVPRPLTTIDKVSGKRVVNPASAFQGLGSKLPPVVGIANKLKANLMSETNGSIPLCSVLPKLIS
# [9] = molecular target: Dual specificity protein kinase CLK3 (Homo sapiens, UniProt P49761); experiment: Selectivity interaction (Radioactive assay (Reaction Biology)) EUB0001046a CLK3
# Chain of Dual specificity protein kinase CLK3 (P49761 whole entry): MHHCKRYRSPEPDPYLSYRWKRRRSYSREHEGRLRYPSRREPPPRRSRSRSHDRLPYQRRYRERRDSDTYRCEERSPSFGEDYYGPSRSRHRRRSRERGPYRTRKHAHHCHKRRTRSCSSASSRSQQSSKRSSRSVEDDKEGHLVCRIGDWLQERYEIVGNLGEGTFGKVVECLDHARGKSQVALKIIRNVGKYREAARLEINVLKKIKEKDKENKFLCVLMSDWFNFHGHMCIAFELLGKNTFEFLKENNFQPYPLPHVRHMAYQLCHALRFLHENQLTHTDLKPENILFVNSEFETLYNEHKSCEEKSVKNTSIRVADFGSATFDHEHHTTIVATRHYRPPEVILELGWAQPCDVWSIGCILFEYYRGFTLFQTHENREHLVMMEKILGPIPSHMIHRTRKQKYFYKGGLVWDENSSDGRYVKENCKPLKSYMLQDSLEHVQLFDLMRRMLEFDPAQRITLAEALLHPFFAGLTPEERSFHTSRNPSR
# [10] = molecular target: Dual specificity protein kinase CLK4 (Homo sapiens, UniProt Q9HAZ1); experiment: Selectivity interaction (Radioactive assay (Reaction Biology)) EUB0001046a CLK4
# [11] = molecular target: Dual specificity tyrosine-phosphorylation-regulated kinase 1B (Homo sapiens, UniProt Q9Y463); experiment: Selectivity interaction (Radioactive assay (Reaction Biology)) EUB0001046a DYRK1B
# Chain of Dual specificity tyrosine-phosphorylation-regulated kinase 1B (Q9Y463 whole entry): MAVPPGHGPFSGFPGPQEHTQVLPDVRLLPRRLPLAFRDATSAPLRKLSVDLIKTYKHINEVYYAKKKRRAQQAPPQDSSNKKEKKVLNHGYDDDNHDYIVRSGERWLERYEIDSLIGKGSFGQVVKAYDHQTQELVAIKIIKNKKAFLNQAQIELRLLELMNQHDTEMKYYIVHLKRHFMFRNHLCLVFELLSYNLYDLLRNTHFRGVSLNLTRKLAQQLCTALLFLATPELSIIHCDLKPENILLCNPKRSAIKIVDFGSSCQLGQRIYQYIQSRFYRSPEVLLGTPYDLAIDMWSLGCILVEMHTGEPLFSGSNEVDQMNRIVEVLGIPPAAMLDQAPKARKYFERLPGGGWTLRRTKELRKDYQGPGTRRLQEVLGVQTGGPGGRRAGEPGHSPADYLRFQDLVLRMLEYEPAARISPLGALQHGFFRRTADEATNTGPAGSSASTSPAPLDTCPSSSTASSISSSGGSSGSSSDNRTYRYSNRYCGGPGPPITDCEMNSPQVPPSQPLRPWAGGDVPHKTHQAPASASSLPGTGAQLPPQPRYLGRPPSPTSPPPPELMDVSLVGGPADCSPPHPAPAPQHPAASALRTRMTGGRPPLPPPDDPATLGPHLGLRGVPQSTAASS
# [12] = molecular target: T4, Interleukin-1 receptor-associated kinase 4 (Homo sapiens, UniProt Q9NWZ3); experiment: Selectivity interaction (Kinase panel (Enzymatic assay, microfluidic mobility shift readout, Caliper lifesciences, conc. ATP = Km for each kinase)) EUB0000678a IRAK4
# T4 sequence (Q9NWZ3 whole entry): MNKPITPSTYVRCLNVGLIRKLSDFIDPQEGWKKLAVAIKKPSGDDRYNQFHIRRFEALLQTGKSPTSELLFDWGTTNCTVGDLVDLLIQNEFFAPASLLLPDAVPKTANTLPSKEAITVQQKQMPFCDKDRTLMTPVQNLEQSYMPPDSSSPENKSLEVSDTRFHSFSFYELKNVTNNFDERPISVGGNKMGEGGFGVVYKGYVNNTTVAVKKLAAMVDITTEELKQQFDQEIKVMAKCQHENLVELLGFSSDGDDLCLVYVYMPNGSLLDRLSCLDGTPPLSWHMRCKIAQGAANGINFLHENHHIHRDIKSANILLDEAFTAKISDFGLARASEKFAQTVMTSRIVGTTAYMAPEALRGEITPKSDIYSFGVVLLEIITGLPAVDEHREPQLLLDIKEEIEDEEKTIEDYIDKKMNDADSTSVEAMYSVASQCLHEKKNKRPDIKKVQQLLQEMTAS
# [13] = molecular target: Ribosomal protein S6 kinase alpha-1 (Homo sapiens, UniProt Q15418); experiment: Selectivity interaction (Kinase panel (Enzymatic assay, microfluidic mobility shift readout, Caliper lifesciences, conc. ATP = Km for each kinase)) EUB0000678a RPS6KA1
# Chain of Ribosomal protein S6 kinase alpha-1 (Q15418 whole entry): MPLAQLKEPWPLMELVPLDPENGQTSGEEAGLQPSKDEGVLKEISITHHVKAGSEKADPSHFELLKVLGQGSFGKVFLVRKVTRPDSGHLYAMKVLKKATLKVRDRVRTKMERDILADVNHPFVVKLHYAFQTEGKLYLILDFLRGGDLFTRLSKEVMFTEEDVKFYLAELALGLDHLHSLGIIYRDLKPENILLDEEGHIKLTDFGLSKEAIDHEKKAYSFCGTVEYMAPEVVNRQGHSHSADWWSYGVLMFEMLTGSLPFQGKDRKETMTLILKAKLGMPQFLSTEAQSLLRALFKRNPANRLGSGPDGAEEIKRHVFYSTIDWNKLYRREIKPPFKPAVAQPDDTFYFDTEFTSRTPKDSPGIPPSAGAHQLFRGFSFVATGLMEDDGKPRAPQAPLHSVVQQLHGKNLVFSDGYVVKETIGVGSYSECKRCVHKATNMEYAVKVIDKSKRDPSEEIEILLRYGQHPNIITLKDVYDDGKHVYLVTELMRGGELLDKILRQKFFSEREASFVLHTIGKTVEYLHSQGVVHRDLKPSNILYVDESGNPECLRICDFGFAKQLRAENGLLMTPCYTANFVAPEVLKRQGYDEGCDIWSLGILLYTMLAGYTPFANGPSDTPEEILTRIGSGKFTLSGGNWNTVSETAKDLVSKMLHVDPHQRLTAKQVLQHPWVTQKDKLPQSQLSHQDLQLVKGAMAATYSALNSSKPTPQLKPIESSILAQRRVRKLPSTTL
# [14] = Selectivity interaction (Kinase panel (cellular selectivity, Bright-Glo proliferation assay in BaF3 Cell line, Promega)) EUB0000678a BMX
# [15] = molecular target: Serine/threonine-protein kinase mTOR (Homo sapiens, UniProt P42345); experiment: Selectivity interaction (Kinase panel (KinaseGlo Luminescent Kinase Assay, Promega)) EUB0000678a MTOR
# [16] = Selectivity interaction (Kinase panel (cellular selectivity, Bright-Glo proliferation assay in BaF3 Cell line, Promega)) EUB0000678a KDR
# [17] = Selectivity interaction (Kinase panel (cellular selectivity, Bright-Glo proliferation assay in BaF3 Cell line, Promega)) EUB0000678a LYN
# [18] = Selectivity interaction (Kinase panel (cellular selectivity, Bright-Glo proliferation assay in BaF3 Cell line, Promega)) EUB0000678a SRC
# [19] = Selectivity interaction (Kinase panel (cellular selectivity, Bright-Glo proliferation assay in BaF3 Cell line, Promega)) EUB0000678a JAK2
# [20] = molecular target: Non-receptor tyrosine-protein kinase TYK2 (Homo sapiens, UniProt P29597); experiment: Selectivity interaction (Kinase panel (Enzymatic assay, microfluidic mobility shift readout, Caliper lifesciences, conc. ATP = Km for each kinase)) EUB0000678a TYK2
# [21] = molecular target: Hepatocyte growth factor receptor (Homo sapiens, UniProt P08581); experiment: Selectivity interaction (Kinase panel (Enzymatic assay, microfluidic mobility shift readout, Caliper lifesciences, conc. ATP = Km for each kinase)) EUB0000678a MET
# [22] = Selectivity interaction (Kinase panel (cellular selectivity, Bright-Glo proliferation assay in BaF3 Cell line, Promega)) EUB0000678a ALK
# [23] = Selectivity interaction (Kinase panel (cellular selectivity, Bright-Glo proliferation assay in BaF3 Cell line, Promega)) EUB0000678a FLT4
# [24] = molecular target: cAMP-dependent protein kinase catalytic subunit alpha (Homo sapiens, UniProt P17612); experiment: Selectivity interaction (Kinase panel (Enzymatic assay, microfluidic mobility shift readout, Caliper lifesciences, conc. ATP = Km for each kinase)) EUB0000678a PRKACA
# [25] = molecular target: Tyrosine-protein kinase JAK1 (Homo sapiens, UniProt P23458); experiment: Selectivity interaction (Kinase panel (Enzymatic assay, microfluidic mobility shift readout, Caliper lifesciences, conc. ATP = Km for each kinase)) EUB0000678a JAK1
# [26] = Selectivity interaction (Kinase panel (cellular selectivity, Bright-Glo proliferation assay in BaF3 Cell line, Promega)) EUB0000678a EPHB1
# [27] = Selectivity interaction (Kinase panel (cellular selectivity, Bright-Glo proliferation assay in BaF3 Cell line, Promega)) EUB0000678a TYK2
# [28] = Selectivity interaction (Kinase panel (cellular selectivity, Bright-Glo proliferation assay in BaF3 Cell line, Promega)) EUB0000678a TEK
# [29] = Selectivity interaction (Kinase panel (cellular selectivity, Bright-Glo proliferation assay in BaF3 Cell line, Promega)) EUB0000678a SYK
# [30] = molecular target: Calcium/calmodulin-dependent protein kinase type II subunit alpha (Homo sapiens, UniProt Q9UQM7); experiment: Selectivity interaction (Kinase panel (Enzymatic assay, microfluidic mobility shift readout, Caliper lifesciences, conc. ATP = Km for each kinase)) EUB0000678a CAMK2A
# [31] = molecular target: Mitogen-activated protein kinase 14 (Homo sapiens, UniProt Q16539); experiment: Selectivity interaction (Kinase panel (Enzymatic assay, microfluidic mobility shift readout, Caliper lifesciences, conc. ATP = Km for each kinase)) EUB0000678a MAPK14
# Chain of Mitogen-activated protein kinase 14 (Q16539 whole entry): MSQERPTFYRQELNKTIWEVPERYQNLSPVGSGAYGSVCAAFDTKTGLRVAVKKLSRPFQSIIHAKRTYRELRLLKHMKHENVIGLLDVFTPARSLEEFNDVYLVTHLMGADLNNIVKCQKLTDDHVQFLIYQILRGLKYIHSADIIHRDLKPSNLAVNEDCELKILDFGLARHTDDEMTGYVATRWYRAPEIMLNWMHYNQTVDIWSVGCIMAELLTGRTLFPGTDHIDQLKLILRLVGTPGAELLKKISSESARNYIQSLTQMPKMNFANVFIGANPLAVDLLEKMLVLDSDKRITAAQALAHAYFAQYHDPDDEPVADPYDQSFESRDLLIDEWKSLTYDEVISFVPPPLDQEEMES
# [32] = molecular target: Tyrosine-protein kinase SYK (Homo sapiens, UniProt P43405); experiment: Selectivity interaction (Kinase panel (Enzymatic assay, microfluidic mobility shift readout, Caliper lifesciences, conc. ATP = Km for each kinase)) EUB0000678a SYK
# [33] = molecular target: Tyrosine-protein kinase JAK2 (Homo sapiens, UniProt O60674); experiment: Selectivity interaction (Kinase panel (Enzymatic assay, microfluidic mobility shift readout, Caliper lifesciences, conc. ATP = Km for each kinase)) EUB0000678a JAK2
# [34] = molecular target: Phosphatidylinositol 3-kinase catalytic subunit type 3 (Homo sapiens, UniProt Q8NEB9); experiment: Selectivity interaction (Kinase panel (KinaseGlo Luminescent Kinase Assay, Promega)) EUB0000678a PIK3C3
# Chain of Phosphatidylinositol 3-kinase catalytic subunit type 3 (Q8NEB9 whole entry): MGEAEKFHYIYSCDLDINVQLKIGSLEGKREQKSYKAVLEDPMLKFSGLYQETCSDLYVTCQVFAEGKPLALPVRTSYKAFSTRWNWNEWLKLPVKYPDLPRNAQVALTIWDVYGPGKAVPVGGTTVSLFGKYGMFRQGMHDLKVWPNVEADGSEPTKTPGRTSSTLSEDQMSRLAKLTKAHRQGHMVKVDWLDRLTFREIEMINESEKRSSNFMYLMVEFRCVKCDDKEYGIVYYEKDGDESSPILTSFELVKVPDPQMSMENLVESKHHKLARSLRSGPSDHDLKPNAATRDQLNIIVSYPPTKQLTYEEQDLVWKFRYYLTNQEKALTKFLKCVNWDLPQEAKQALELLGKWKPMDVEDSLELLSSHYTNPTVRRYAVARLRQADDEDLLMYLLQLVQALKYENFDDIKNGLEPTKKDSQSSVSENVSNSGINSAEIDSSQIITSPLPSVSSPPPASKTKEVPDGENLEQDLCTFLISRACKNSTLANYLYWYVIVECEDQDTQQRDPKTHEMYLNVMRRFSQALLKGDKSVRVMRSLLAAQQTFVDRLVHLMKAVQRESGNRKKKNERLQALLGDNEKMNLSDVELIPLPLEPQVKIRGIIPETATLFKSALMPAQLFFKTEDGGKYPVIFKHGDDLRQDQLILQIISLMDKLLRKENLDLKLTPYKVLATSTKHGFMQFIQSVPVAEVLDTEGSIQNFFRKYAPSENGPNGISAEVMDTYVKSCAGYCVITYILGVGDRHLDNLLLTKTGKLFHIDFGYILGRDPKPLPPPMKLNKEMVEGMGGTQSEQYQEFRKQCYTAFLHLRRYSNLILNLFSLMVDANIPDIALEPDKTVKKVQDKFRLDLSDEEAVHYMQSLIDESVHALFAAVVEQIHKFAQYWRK
# [35] = Selectivity interaction (Kinase panel (cellular selectivity, Bright-Glo proliferation assay in BaF3 Cell line, Promega)) EUB0000678a NTRK2
# [36] = molecular target: Cyclin-dependent kinase 2 (Homo sapiens, UniProt P24941); experiment: Selectivity interaction (Kinase panel (Enzymatic assay, microfluidic mobility shift readout, Caliper lifesciences, conc. ATP = Km for each kinase)) EUB0000678a CDK2
# [37] = Selectivity interaction (Kinase panel (cellular selectivity, Bright-Glo proliferation assay in BaF3 Cell line, Promega)) EUB0000678a ROS1
# [38] = Selectivity interaction (Kinase panel (cellular selectivity, Bright-Glo proliferation assay in BaF3 Cell line, Promega)) EUB0000678a KDR; remark: listed apart in the source
# [39] = Selectivity interaction (Kinase panel (cellular selectivity, Bright-Glo proliferation assay in BaF3 Cell line, Promega)) EUB0000678a INSR
# [40] = Selectivity interaction (Kinase panel (cellular selectivity, Bright-Glo proliferation assay in BaF3 Cell line, Promega)) EUB0000678a FLT1
# [41] = Selectivity interaction (Kinase panel (cellular selectivity, Bright-Glo proliferation assay in BaF3 Cell line, Promega)) EUB0000678a RET
# [42] = Selectivity interaction (Kinase panel (cellular selectivity, Bright-Glo proliferation assay in BaF3 Cell line, Promega)) EUB0000678a MET
# T1 sequence (Q96SB4 whole entry): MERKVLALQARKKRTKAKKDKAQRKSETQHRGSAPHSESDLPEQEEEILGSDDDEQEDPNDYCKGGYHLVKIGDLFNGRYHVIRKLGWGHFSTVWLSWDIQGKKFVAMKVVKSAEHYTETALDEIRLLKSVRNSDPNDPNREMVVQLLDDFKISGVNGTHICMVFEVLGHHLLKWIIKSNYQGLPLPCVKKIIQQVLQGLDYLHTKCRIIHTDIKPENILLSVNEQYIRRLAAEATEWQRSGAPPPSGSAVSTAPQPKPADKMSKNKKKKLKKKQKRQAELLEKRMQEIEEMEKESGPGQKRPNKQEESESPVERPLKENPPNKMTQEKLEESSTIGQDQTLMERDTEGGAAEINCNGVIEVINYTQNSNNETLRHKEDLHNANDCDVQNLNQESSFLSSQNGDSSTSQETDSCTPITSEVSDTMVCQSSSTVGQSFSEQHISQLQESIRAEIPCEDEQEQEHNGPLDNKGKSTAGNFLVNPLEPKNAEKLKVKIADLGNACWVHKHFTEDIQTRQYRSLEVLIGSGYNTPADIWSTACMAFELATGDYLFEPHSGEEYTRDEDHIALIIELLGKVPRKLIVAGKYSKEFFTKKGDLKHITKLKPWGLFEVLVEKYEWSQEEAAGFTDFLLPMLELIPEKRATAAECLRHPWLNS
smiles,measurement,setting,value
CN(c1ncccc1CNc1ccnc(-c2cc3cc(Cl)ccc3[nH]2)n1)S(C)(=O)=O,IC50,[1],> 50 µM
same,dTM,[2],0.5 K
same,IC50,[3],> 10 µM
same,IC50,[4],> 10 µM
same,dTM,[5],0.3 K
same,IC50,[6],> 10 µM
same,IC50,[7],> 10 µM
same,IC50,[8],> 10 µM
same,IC50,[9],> 10 µM
same,IC50,[10],> 10 µM
same,IC50,[11],> 10 µM
CCN1CCN(c2ccc(Nc3cc(N(C)C(=O)Nc4c(Cl)c(OC)cc(OC)c4Cl)ncn3)cc2)CC1 [INFIGRATINIB],IC50,[12],> 10 µM
same,IC50,[13],> 10 µM
same,IC50,[14],3.41 µM
same,IC50,[15],> 9 µM
same,IC50,[16],0.938 µM
same,IC50,[17],3.02 µM
same,IC50,[18],2.97 µM
same,IC50,[19],2.88 µM
same,IC50,[20],> 10 µM
same,IC50,[21],> 10 µM
same,IC50,[22],3.08 µM
same,IC50,[23],2.07 µM
same,IC50,[24],> 10 µM
same,IC50,[25],> 10 µM
same,IC50,[26],3.04 µM
same,IC50,[27],3.3 µM
same,IC50,[28],2.05 µM
same,IC50,[29],5.36 µM
same,IC50,[30],> 10 µM
same,IC50,[31],> 10 µM
same,IC50,[32],> 10 µM
same,IC50,[33],> 10 µM
same,IC50,[34],> 9 µM
same,IC50,[35],3.14 µM
same,IC50,[36],> 10 µM
same,IC50,[37],3.26 µM
same,IC50,[38],1.45 µM
same,IC50,[39],3.37 µM
same,IC50,[40],1.51 µM
same,IC50,[41],3.35 µM
same,IC50,[42],3.01 µM
